Activity calls are given as the source filed them. The calls are words filed in the database; no cut-off is given here.
Legend:
HCT-116 [1] = experiment: Cytotoxicity against human HCT-116 cells assessed as inhibition of cell growth measured after 72 hrs by MTT assay; format: functional, cell-based; details: HCT-116, 72 h
MDA-MB-231 = experiment: Cytotoxicity against human MDA-MB-231 cells assessed as inhibition of cell growth at 20 uM measured after 72 hrs by MTT assay relative to control; format: functional
A549 [2] = experiment: Cytotoxicity against human A549 cells assessed as inhibition of cell growth measured after 72 hrs by MTT assay; format: functional, cell-based; details: Homo sapiens, A549, 72 h; read-out: IC50
TAK1-TAB1 fusion protein = TAK1-TAB1 fusion protein (Homo sapiens, UniProt O43318); experiment: Inhibition of Tak1/Tab1 (unknown origin) assessed as inhibition of Tak1 kinase activity preincubated for 30 mins followed by addition of MBP protein and ATP and measured after 2 hrs by ADP-Glo kinase assay
Sequence of TAK1-TAB1 fusion protein (O43318 whole entry, looked up, the tested form may be a part): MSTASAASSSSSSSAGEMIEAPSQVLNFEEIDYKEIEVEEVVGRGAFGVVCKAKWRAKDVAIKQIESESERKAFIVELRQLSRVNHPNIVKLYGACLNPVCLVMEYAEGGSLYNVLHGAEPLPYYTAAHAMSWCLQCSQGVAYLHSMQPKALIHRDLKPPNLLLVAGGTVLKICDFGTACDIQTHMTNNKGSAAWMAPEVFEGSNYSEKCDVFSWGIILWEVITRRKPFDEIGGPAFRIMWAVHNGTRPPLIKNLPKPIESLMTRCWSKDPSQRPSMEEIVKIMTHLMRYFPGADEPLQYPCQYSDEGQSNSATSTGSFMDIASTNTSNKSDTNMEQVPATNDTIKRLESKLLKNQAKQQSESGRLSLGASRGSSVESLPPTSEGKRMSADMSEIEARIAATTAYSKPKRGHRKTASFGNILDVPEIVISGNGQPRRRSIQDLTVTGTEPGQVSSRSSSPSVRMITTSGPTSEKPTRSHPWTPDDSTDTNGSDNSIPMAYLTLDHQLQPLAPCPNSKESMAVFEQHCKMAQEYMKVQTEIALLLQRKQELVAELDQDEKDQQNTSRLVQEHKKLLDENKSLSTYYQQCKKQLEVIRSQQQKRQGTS

A549 [3] = experiment: Cell cycle arrest in human A549 cells assessed as accumulation at G2/M phase at 0.6 uM measured after 24 hrs by PI staining based Flow cytometry method (reference value: 10.2%); format: functional
A549 [4] = experiment: Cell cycle arrest in human A549 cells assessed as accumulation at S phase at 0.6 uM measured after 24 hrs by PI staining based Flow cytometry method (reference value: 34.24%); format: functional
A549 [5] = experiment: Cell cycle arrest in human A549 cells assessed as accumulation at G0/G1 phase at 1.2 uM measured after 24 hrs by PI staining based Flow cytometry method (reference value: 55.54%); format: functional
A549 [6] = experiment: Cell cycle arrest in human A549 cells assessed as accumulation at S phase at 1.2 uM measured after 24 hrs by PI staining based Flow cytometry method (reference value: 34.24%); format: functional
A549 [7] = experiment: Cell cycle arrest in human A549 cells assessed as accumulation at G0/G1 phase at 1.8 uM measured after 24 hrs by PI staining based Flow cytometry method (reference value: 55.54%); format: functional
A549 [8] = experiment: Cell cycle arrest in human A549 cells assessed as accumulation at G2/M phase at 1.8 uM measured after 24 hrs by PI staining based Flow cytometry method (reference value: 10.2%); format: functional
A549 [9] = experiment: Cell cycle arrest in human A549 cells assessed as accumulation at S phase at 1.8 uM measured after 24 hrs by PI staining based Flow cytometry method (reference value: 34.24%); format: functional
HCT-116 [10] = experiment: Cell cycle arrest in human HCT-116 cells assessed as accumulation at G2/M phase at 1.8 uM measured after 24 hrs by PI staining based Flow cytometry method; format: functional
A549 [11] = experiment: Induction of apoptosis in human A549 cells assessed as viable cells at 0.6 uM measured by annexinV-FITC/propidium iodide staining based flow cytometry analysis (reference value: 97.8%); format: functional; details: read-out: Activity
A549 [12] = experiment: Induction of apoptosis in human A549 cells assessed as necrotic cells at 0.6 uM measured by annexinV-FITC/propidium iodide staining based flow cytometry analysis (reference value: 0.42%); format: functional
A549 [13] = experiment: Induction of apoptosis in human A549 cells assessed as viable cells at 1.2 uM measured by annexinV-FITC/propidium iodide staining based flow cytometry analysis (reference value: 97.8%); format: functional; details: read-out: Activity
A549 [14] = experiment: Induction of apoptosis in human A549 cells assessed as early apoptotic cells at 1.2 uM measured by annexinV-FITC/propidium iodide staining based flow cytometry analysis (reference value: 1.17%); format: functional
A549 [15] = experiment: Induction of apoptosis in human A549 cells assessed as late apoptotic cells at 1.2 uM measured by annexinV-FITC/propidium iodide staining based flow cytometry analysis (reference value: 0.64%); format: functional
A549 [16] = experiment: Induction of apoptosis in human A549 cells assessed as necrotic cells at 1.2 uM measured by annexinV-FITC/propidium iodide staining based flow cytometry analysis (reference value: 0.42%); format: functional
A549 [17] = experiment: Induction of apoptosis in human A549 cells assessed as viable cells at 1.8 uM measured by annexinV-FITC/propidium iodide staining based flow cytometry analysis (reference value: 97.8%); format: functional; details: read-out: Activity
A549 [18] = experiment: Induction of apoptosis in human A549 cells assessed as late apoptotic cells at 1.8 uM measured by annexinV-FITC/propidium iodide staining based flow cytometry analysis (reference value: 0.64%); format: functional
A549 [19] = experiment: Induction of apoptosis in human A549 cells assessed as necrotic cells at 1.8 uM measured by annexinV-FITC/propidium iodide staining based flow cytometry analysis (reference value: 0.42%); format: functional
HCT-116 [20] = experiment: Induction of apoptosis in human HCT-116 cells assessed as early apoptotic cells at 1.8 uM measured by annexinV-FITC/propidium iodide staining based flow cytometry analysis; format: functional
[21] = target: T1, Nuclear factor NF-kappa-B complex (Homo sapiens) (UniProt Q00653+P19838+Q04206); experiment: Inhibition of human NF-kB in human HCT-116 cells assessed as suppression of TNF-alpha induced p-65 expression at 0.5 to 5 uM pretreated with compounds for 24 hrs followed by TNF-alpha stimulation for 10 mins by Western blot analysis; format: cell-based; details: dose 0.5-5 µM, time 1450.0 min
T1 sequence (P19838 whole entry, looked up): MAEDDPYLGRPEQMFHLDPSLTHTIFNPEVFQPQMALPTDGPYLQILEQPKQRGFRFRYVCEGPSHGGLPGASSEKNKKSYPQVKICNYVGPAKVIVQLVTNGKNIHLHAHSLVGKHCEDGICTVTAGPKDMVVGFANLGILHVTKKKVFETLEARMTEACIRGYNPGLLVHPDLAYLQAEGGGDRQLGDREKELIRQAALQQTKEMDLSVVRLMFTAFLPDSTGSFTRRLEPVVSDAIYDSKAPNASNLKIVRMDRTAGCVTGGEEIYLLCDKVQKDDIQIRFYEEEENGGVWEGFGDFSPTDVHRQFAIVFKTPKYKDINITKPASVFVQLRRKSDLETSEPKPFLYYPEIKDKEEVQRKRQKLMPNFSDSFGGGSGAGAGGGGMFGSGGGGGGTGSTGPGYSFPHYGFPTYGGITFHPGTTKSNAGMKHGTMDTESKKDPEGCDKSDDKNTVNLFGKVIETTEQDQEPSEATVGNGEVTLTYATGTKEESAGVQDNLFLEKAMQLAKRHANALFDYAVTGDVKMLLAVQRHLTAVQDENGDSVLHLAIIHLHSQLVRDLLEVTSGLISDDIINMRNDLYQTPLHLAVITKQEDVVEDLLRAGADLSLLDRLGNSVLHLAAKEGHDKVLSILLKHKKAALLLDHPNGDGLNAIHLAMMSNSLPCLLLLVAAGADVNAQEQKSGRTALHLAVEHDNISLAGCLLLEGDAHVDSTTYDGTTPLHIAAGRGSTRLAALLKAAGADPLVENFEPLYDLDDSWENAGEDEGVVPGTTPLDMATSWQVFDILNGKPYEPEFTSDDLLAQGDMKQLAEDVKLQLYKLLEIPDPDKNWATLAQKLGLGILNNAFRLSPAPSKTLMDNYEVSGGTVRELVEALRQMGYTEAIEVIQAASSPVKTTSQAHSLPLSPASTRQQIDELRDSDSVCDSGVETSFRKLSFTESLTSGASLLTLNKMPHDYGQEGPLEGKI
T1 sequence (Q00653 whole entry, looked up): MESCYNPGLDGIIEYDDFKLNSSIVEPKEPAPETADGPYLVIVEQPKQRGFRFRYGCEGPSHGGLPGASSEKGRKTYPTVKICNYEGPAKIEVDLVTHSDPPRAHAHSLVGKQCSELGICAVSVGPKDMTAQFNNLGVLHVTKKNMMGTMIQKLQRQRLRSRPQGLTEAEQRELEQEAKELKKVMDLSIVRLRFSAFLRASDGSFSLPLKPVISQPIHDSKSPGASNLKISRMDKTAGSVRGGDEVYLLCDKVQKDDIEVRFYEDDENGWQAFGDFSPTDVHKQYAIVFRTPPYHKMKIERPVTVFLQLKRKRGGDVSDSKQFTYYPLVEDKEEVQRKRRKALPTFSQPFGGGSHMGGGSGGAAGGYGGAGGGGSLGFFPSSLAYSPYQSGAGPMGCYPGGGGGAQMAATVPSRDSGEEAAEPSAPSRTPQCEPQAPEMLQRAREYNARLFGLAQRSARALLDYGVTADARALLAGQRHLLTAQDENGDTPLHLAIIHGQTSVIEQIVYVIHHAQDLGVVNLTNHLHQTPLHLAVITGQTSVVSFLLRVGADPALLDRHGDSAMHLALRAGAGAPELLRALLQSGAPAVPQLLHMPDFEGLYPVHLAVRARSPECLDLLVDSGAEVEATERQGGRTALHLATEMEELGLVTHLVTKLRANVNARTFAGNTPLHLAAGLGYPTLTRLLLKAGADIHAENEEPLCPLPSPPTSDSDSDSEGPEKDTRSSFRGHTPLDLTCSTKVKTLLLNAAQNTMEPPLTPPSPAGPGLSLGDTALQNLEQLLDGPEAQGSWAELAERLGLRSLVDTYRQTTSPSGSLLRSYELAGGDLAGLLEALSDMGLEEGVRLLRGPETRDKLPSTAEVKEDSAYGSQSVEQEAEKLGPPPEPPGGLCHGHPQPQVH
T1 sequence (Q04206 whole entry, looked up): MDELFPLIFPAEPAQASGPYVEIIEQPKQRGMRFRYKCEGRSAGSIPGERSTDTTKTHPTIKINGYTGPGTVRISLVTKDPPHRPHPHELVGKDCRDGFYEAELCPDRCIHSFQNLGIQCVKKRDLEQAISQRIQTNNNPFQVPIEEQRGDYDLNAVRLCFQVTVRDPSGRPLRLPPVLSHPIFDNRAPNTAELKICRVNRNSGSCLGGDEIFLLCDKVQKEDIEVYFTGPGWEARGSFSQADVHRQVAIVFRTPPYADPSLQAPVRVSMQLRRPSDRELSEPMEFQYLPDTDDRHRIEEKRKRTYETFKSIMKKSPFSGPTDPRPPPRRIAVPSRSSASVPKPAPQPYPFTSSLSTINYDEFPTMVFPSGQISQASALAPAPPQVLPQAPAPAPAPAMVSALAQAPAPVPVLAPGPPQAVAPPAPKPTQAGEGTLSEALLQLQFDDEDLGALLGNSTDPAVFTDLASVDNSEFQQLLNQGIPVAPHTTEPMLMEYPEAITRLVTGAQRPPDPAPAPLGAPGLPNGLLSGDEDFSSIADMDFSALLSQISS

[22] = target: T1, Nuclear factor NF-kappa-B complex (Homo sapiens); experiment: Inhibition of human NF-kB in human HCT-116 cells assessed as suppression of TNF-alpha induced p-65 phosphorylation at 0.5 to 5 uM pretreated with compounds for 24 hrs followed by TNF-alpha stimulation for 10 mins by Western blot analysis; format: cell-based; details: dose 0.5-5 µM, time 1450.0 min
[23] = target: T1, Nuclear factor NF-kappa-B complex (Homo sapiens); experiment: Inhibition of human NF-kB in human HCT-116 cells assessed as suppression of TNF-alpha induced IkBalpha phosphorylation at 0.5 to 5 uM pretreated with compounds for 24 hrs followed by TNF-alpha stimulation for 10 mins by Western blot analysis; format: cell-based; details: dose 0.5-5 µM, time 1450.0 min
[24] = target: T1, Nuclear factor NF-kappa-B complex (Homo sapiens); experiment: Inhibition of human NF-kB in human HCT-116 cells assessed as suppression of TNF-alpha induced TAK1 expression at 0.5 to 5 uM pretreated with compounds for 24 hrs followed by TNF-alpha stimulation for 10 mins by Western blot analysis; format: cell-based; details: dose 0.5-5 µM, time 1450.0 min
[25] = target: T1, Nuclear factor NF-kappa-B complex (Homo sapiens); experiment: Inhibition of human NF-kB in human HCT-116 cells assessed as suppression of TNF-alpha induced TAK1 phosphorylation at 0.5 to 5 uM pretreated with compounds for 24 hrs followed by TNF-alpha stimulation for 10 mins by Western blot analysis; format: cell-based; details: dose 0.5-5 µM, time 1450.0 min
[26] = target: T1, Nuclear factor NF-kappa-B complex (Homo sapiens); experiment: Inhibition of human NF-kB in human A549 cells assessed as suppression of TNF-alpha induced p-65 phosphorylation at 0.5 to 5 uM pretreated with compounds for 24 hrs followed by TNF-alpha stimulation for 10 mins by Western blot analysis; format: cell-based; details: dose 0.5-5 µM, time 1450.0 min
[27] = target: T1, Nuclear factor NF-kappa-B complex (Homo sapiens); experiment: Inhibition of human NF-kB in human A549 cells assessed as suppression of TNF-alpha induced IkBalpha phosphorylation at 0.5 to 5 uM pretreated with compounds for 24 hrs followed by TNF-alpha stimulation for 10 mins by Western blot analysis; format: cell-based; details: dose 0.5-5 µM, time 1450.0 min
MAP3K7 [28] = experiment: Inhibition of human TAK1 in human A549 cells assessed as suppression of TNF-alpha induced TAK1 expression at 0.5 to 5 uM pretreated with compounds for 24 hrs followed by TNF-alpha stimulation for 10 mins by Western blot analysis; details: dose 0.5-5 µM, time 1450.0 min
MAP3K7 [29] = experiment: Inhibition of human TAK1 in human A549 cells assessed as suppression of TNF-alpha induced TAK1 phosphorylation at 0.5 to 5 uM pretreated with compounds for 24 hrs followed by TNF-alpha stimulation for 10 mins by Western blot analysis; details: dose 0.5-5 µM, time 1450.0 min

IC50 (TAK1-TAB1 fusion protein): 0.58 µM | inhibition [21]: Active | inhibition [22]: Active | inhibition [23]: Active | inhibition [24]: Active | inhibition [25]: Active | inhibition [26]: Active | inhibition [27]: Active | inhibition (MAP3K7 [28]): Active | inhibition (MAP3K7 [29]): Active
SMILES: CNC(=O)c1cc(Oc2ccc(Nc3nccc(N4CCCCC4)n3)cc2)ccn1
IC50 (HCT-116 [1]): 0.54 µM | inhibition at 20 µM (MDA-MB-231): 52.3% | IC50 (A549 [2]): 0.89 µM | Activity (A549 [3]): 15.91% | Activity (A549 [4]): 23.56% | Activity (A549 [5]): 57.49% | Activity (A549 [6]): 18.83% | Activity (A549 [7]): 52.78% | Activity (A549 [8]): 30.57% | Activity (A549 [9]): 16.65% | Activity (HCT-116 [10]): 36.72% | viability at 0.6 µM (A549 [11]): 87.6% | Activity (A549 [12]): 0.75% | viability at 1.2 µM (A549 [13]): 80.6% | Activity (A549 [14]): 12.9% | Activity (A549 [15]): 5.7% | Activity (A549 [16]): 0.74% | viability at 1.8 µM (A549 [17]): 64.4% | Activity (A549 [18]): 9.54% | Activity (A549 [19]): 0.71% | Activity (HCT-116 [20]): 71.4%

From ChEMBL document CHEMBL4831488, “Design, synthesis, docking, molecular dynamics and bioevaluation studies on novel N-methylpicolinamide and thienopyrimidine derivatives with inhibiting NF-κB and TAK1 activities: Cheminformatics tools RDKit applied in drug design” (Eur J Med Chem, 2021)
